28 molecules from US9890153B2, “Substituted 1H-pyrrolo [2, 3-b] pyridine and 1H-pyrazolo [3, 4-b] pyridine derivatives as salt inducible kinase 2 (SIK2) inhibitors” (Arrien Pharmaceuticals LLC, priority 2012, dated 2018) can be followed below.

Type in all cases: biochemical
The target in one assay is T1, SIK1 (SEQ ID NO: 10) (Homo sapiens, UniProt P57059).
T1 construct: Reaction Biology Corporation (assay service, HotSpot panel)
The assay can be described thus: Protein kinase assay, SIK1. The following applies: read-out: SIK1 (SEQ ID NO: 10) kinase inhibition result. How it is done:
(§1) Briefly, specific kinase/substrate pairs along with required cofactors were prepared in reaction buffer; 20 mM Hepes (pH 7.5), 10 mMmgCl2, 1 mM EGTA, 0.02% Brij35, 0.02 mg/ml BSA, 0.1 mM Na3VO4, 2 mM DTT, 1% DMSO. Compounds were delivered into the reaction, followed ˜20 min later by addition of a mixture of ATP (Sigma) and 33P ATP (PerkinElmer) to a final concentration of 10 μM. […] IC50 values and curve fits were obtained using Prism (GraphPad Software). Kinome tree representations were prepared using Kinome Mapper (http://www.reactionbiology.com/apps/kinome/mapper/LaunchKinome.htm).

Assay [1] has as its target SIK2 (QIK) (SEQ ID NO: 11) (Homo sapiens, UniProt Q9H0K1). Description: SIK2 kinase assay (radiometric, 10 μM ATP). To be noted: read-out: SIK2 (QIK) (SEQ ID NO: 11) kinase inhibition result. How it is done: Procedure: Enzyme was incubated with substrate peptide in reaction buffer in the presence and absence of test compounds or Staurosporine. All additions were done on ice, followed by the addition of ATP mix. Wells were uniformly mixed using an Eppendorff plate shaker and incubated at 30° C. for 20 min, and stopped by the addition of 5 μL of 3% phosphoric acid. Volume was increased to 100 μL by adding 0.8% phosphoric acid which was then transferred to PC filter mats (Millipore), pre-equilibrated with 70% ethanol and water. Plates were washed thrice with 100 μL 0.8% phosphoric acid and dried for an hour at 60° C.

The target in assay [2] is T2, SIK3 (QSK) (SEQ ID NO: 24) (Homo sapiens, UniProt Q9Y2K2).
T2 construct: Reaction Biology Corporation (assay service, HotSpot panel)
The assay can be described thus: Protein kinase assay, SIK3. To be noted: read-out: SIK3 (QSK) (SEQ ID NO: 24) kinase inhibition result. How it is done: as §1

T2 sequence (Q9Y2K2 whole entry): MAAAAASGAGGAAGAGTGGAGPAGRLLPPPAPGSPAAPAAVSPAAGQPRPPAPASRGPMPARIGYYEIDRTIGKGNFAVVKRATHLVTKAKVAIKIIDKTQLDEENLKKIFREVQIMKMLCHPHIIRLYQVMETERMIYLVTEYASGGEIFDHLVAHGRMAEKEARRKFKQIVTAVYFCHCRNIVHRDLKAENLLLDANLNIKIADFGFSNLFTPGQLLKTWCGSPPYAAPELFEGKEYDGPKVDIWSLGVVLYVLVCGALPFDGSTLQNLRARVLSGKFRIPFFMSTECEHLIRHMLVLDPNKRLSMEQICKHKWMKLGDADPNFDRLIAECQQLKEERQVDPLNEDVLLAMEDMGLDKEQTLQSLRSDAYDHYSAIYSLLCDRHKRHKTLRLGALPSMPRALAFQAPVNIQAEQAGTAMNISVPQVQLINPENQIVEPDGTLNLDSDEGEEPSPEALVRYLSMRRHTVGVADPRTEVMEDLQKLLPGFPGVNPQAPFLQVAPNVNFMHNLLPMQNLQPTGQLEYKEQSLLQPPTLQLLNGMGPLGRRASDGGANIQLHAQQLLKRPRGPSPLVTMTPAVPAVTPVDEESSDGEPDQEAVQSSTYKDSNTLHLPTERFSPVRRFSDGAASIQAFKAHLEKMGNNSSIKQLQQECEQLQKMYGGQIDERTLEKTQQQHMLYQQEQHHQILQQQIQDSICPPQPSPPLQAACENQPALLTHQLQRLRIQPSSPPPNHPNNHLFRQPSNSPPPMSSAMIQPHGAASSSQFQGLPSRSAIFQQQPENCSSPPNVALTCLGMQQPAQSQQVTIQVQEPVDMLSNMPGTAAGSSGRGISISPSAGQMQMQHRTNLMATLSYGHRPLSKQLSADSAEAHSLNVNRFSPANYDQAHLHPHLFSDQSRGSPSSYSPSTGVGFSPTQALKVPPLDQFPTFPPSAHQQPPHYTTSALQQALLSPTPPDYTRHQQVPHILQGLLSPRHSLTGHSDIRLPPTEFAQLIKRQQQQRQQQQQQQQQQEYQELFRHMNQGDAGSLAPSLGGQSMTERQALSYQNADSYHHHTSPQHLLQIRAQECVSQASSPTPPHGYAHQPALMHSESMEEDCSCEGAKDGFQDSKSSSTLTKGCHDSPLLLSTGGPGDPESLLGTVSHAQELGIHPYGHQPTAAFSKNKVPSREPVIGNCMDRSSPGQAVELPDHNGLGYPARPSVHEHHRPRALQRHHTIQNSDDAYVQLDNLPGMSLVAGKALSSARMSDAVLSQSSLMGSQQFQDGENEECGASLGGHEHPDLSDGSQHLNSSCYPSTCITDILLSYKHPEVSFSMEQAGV
T1 sequence (P57059 whole entry): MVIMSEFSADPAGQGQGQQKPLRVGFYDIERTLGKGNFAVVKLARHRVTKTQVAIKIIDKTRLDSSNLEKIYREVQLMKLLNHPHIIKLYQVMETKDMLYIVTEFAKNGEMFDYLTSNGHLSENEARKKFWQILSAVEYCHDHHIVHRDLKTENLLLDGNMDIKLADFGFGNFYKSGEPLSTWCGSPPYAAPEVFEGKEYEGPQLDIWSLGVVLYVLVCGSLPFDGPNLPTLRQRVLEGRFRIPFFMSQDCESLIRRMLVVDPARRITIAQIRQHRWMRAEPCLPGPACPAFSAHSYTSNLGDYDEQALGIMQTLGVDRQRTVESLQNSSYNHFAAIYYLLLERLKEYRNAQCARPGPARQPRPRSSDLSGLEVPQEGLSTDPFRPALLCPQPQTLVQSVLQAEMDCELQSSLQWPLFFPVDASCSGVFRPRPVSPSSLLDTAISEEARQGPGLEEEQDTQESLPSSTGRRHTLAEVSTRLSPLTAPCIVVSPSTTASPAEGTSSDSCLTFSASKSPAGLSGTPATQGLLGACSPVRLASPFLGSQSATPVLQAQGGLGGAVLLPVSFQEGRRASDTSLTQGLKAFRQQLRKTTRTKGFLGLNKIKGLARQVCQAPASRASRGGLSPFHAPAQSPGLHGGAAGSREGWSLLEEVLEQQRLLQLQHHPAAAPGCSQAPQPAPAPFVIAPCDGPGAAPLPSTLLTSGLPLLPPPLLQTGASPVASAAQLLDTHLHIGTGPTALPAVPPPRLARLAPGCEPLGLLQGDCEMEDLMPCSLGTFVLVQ
Sequence of SIK2 (QIK) (SEQ ID NO: 11) (Q9H0K1 whole entry): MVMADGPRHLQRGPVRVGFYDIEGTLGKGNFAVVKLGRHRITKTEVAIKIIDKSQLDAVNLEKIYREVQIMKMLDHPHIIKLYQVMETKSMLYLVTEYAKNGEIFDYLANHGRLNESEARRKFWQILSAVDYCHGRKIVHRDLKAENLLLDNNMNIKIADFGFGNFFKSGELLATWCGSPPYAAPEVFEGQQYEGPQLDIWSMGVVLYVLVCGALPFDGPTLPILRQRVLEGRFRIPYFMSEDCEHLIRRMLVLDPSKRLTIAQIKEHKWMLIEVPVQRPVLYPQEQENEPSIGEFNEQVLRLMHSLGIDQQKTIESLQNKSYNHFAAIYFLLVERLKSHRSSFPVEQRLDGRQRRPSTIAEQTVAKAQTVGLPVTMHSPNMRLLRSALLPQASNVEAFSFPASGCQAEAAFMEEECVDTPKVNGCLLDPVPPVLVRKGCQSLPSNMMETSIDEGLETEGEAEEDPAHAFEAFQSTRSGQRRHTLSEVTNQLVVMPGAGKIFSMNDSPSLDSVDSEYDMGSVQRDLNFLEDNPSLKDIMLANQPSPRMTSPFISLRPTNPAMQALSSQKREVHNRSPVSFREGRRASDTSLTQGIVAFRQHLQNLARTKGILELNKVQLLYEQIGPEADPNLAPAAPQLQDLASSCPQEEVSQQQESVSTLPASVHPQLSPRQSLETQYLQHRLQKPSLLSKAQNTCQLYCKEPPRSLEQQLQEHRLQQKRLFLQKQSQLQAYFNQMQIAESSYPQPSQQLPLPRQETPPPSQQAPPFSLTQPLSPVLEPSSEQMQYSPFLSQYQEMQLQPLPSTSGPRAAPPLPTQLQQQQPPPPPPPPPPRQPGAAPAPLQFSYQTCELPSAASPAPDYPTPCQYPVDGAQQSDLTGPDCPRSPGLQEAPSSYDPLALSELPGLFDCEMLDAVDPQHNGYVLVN

Take `Fc1ccc(-c2n[nH]c3nccc(-c4ccsc4)c23)c(F)c1` [Example 2, 3-(2,4-difluorophenyl)-4-(thiophen-3-yl)-1H-pyrazolo[3,4-b]pyridine]: the IC50 was above 1 µM at SIK1 (SEQ ID NO: 10), above 0.1 µM in assay [1] and above 1 µM in assay [2].

As to `CCOc1ccccc1-c1n[nH]c2nccc(-c3ccsc3)c12` [Example 5, 3-(2-ethoxyphenyl)-4-(thiophen-3-yl)-1H-pyrazolo[3,4-b]pyridine], the IC50 at SIK1 (SEQ ID NO: 10) was above 1 µM; in assay [1], above 0.1 µM; in assay [2], below 0.1 µM.

Take `COc1cc(Cl)ccc1-c1n[nH]c2nccc(-c3ccsc3)c12` [Example 6, 3-(4-chloro-2-methoxyphenyl)-4-(thiophen-3-yl)-1H-pyrazolo[3,4-b]pyridine]: the IC50 on SIK1 (SEQ ID NO: 10) was above 0.1 µM; in assay [1] it was above 0.1 µM; in assay [2], above 1 µM.

`COc1ccccc1-c1c[nH]c2nccc(-c3ccsc3)c12` [Example 17, 3-(2-methoxyphenyl)-4-(thiophen-3-yl)-1H-pyrrolo[2,3-b]pyridine]: the IC50 (at SIK1 (SEQ ID NO: 10); in assay [1]; in assay [2]) was above 0.1 µM each time.

Take `CCN(CC)S(=O)(=O)c1ccccc1-c1c[nH]c2nccc(-c3ccsc3)c12` [Example 95, N,N-diethyl-2-(4-(thiophen-3-yl)-1H-pyrrolo[2,3-b]pyridin-3-yl)benzenesulfonamide]: the IC50 (at SIK1 (SEQ ID NO: 10); in assay [1]; in assay [2]) was above 1 µM throughout.

As for `O=S(=O)(c1ccc(-c2c[nH]c3nccc(-c4ccsc4)c23)cc1)N1CCC1` [Example 96, 3-(4-(azetidin-1-ylsulfonyl)phenyl)-4-(thiophen-3-yl)-1H-pyrrolo[2,3-b]pyridine], the IC50 (on SIK1 (SEQ ID NO: 10); in assay [1]; in assay [2]) was above 1 µM throughout.

For `O=S(=O)(c1cccc(-c2c[nH]c3nccc(-c4ccsc4)c23)c1)N1CCCC1` [Example 97, 3-(3-(pyrrolidin-1-ylsulfonyl)phenyl)-4-(thiophen-3-yl)-1H-pyrrolo[2,3-b]pyridine], the IC50 (on SIK1 (SEQ ID NO: 10); in assay [1]; in assay [2]) was above 1 µM each time.

`O=S(=O)(c1ccc(-c2c[nH]c3nccc(-c4ccsc4)c23)cc1)N1CCCC1` [Example 98, 3-(4-(pyrrolidin-1-ylsulfonyl)phenyl)-4-(thiophen-3-yl)-1H-pyrrolo[2,3-b]pyridine]: the IC50 (at SIK1 (SEQ ID NO: 10); in assay [1]; in assay [2]) was above 1 µM throughout.

Regarding `COc1ccccc1-c1c[nH]c2ncc(-c3ccc(C)o3)cc12` [Example 115, 3-(2-methoxyphenyl)-5-(5-methylfuran-2-yl)-1H-pyrrolo[2,3-b]pyridine], the figures for the IC50 (on SIK1 (SEQ ID NO: 10); in assay [1]; in assay [2]) were above 0.1 µM, below 0.1 µM and above 1 µM, respectively.

Regarding `Cc1ccc(-c2ccnc3[nH]cc(-c4cccc(F)c4Cl)c23)o1` [Example 116, 3-(2-chloro-3-fluorophenyl)-4-(5-methylfuran-2-yl)-1H-pyrrolo[2,3-b]pyridine], the IC50 at SIK1 (SEQ ID NO: 10) was above 1 µM; in assay [1], above 0.1 µM; in assay [2], above 1 µM.

For `COc1c(F)cccc1-c1c[nH]c2nccc(-c3ccsc3)c12` [Example 120, 3-(3-fluoro-2-methoxyphenyl)-4-(thiophen-3-yl)-1H-pyrrolo[2,3-b]pyridine], the IC50 at SIK1 (SEQ ID NO: 10) is above 0.1 µM; in assay [1] it was below 0.1 µM; in assay [2], above 0.1 µM.

For `Oc1ccccc1-c1c[nH]c2ncc(-c3ccsc3)cc12` [Example 123, 2-(5-(thiophen-3-yl)-1H-pyrrolo[2,3-b]pyridin-3-yl)phenol], the IC50 (at SIK1 (SEQ ID NO: 10); in assay [1]; in assay [2]) was above 0.1 µM throughout.

In the case of `Oc1c(F)cc(F)cc1-c1c[nH]c2ncc(-c3ccsc3)cc12` [Example 124, 2,4-difluoro-6-(5-(thiophen-3-yl)-1H-pyrrolo[2,3-b]pyridin-3-yl)phenol], the IC50 (at SIK1 (SEQ ID NO: 10); in assay [1]; in assay [2]) was above 0.1 µM throughout.

For `Cc1ccc(-c2cnc3[nH]cc(-c4cccc(F)c4O)c3c2)o1` [Example 128, 2-fluoro-6-(5-(5-methylfuran-2-yl)-1H-pyrrolo[2,3-b]pyridin-3-yl)phenol], the IC50 at SIK1 (SEQ ID NO: 10) is above 0.1 µM; in assay [1] it was below 0.1 µM; in assay [2], above 0.1 µM.

`Fc1cccc(-c2c[nH]c3ncc(-c4ccc(CN5CCOCC5)s4)cc23)c1Cl` [Example 133]: the IC50 on SIK1 (SEQ ID NO: 10) was above 1 µM; in assay [1], below 0.1 µM; in assay [2], above 0.1 µM.

Regarding `Cc1nc(Nc2cnc3[nH]cc(-c4cccc(F)c4Cl)c3c2)sc1Cl` [Example 134, 5-chloro-N-(3-(2-chloro-3-fluorophenyl)-1H-pyrrolo[2,3-b]pyridin-5-yl)-4-methylthiazol-2-amine], the IC50 on SIK1 (SEQ ID NO: 10) is above 0.1 µM; in assay [1], above 0.1 µM; in assay [2], above 1 µM.

`CN(C)S(=O)(=O)c1cccc(-c2cnc3[nH]cc(-c4cccc(F)c4Cl)c3c2)c1` [Example 135, 3-(3-(2-chloro-3-fluorophenyl)-1H-pyrrolo[2,3-b]pyridin-5-yl)-N,N-dimethylbenzenesulfonamide]: the results for the IC50 (at SIK1 (SEQ ID NO: 10); in assay [1]; in assay [2]) were above 0.1 µM, below 0.1 µM and above 0.1 µM, respectively.

As for `FC1(F)CN(c2c[nH]c3ncc(-c4ccsc4)cc23)C1` [Example 136, 3-(3,3-difluoroazetidin-1-yl)-5-(thiophen-3-yl)-1H-pyrrolo[2,3-b]pyridine], the IC50 is above 0.1 µM on SIK1 (SEQ ID NO: 10), below 0.1 µM in assay [1] and above 0.1 µM in assay [2].

As for `Fc1c(-c2c[nH]c3ncc(-c4ccsc4)cc23)ccnc1Cl` [Example 141, 3-(2-chloro-3-fluoropyridin-4-yl)-5-(thiophen-3-yl)-1H-pyrrolo[2,3-b]pyridine], the IC50 on SIK1 (SEQ ID NO: 10) is above 1 µM; in assay [1] it was below 0.1 µM; in assay [2], above 0.1 µM.

For the molecule `COc1c(F)cccc1-c1c[nH]c2ncc(-c3ccc(CN4CCOCC4)s3)cc12` [Example 142, 4-((5-(3-(3-fluoro-2-methoxyphenyl)-1H-pyrrolo[2,3-b]pyridin-5-yl)thiophen-2-yl)methyl)morpholine], the IC50 was above 1 µM on SIK1 (SEQ ID NO: 10), below 0.1 µM in assay [1] and below 0.1 µM in assay [2].

As to `COc1c(F)cccc1-c1c[nH]c2ncc(-c3ccc(C)o3)cc12` [Example 168, 3-(3-fluoro-2-methoxyphenyl)-5-(5-methylfuran-2-yl)-1H-pyrrolo[2,3-b]pyridine], the IC50 at SIK1 (SEQ ID NO: 10) was above 1 µM; in assay [1], below 0.1 µM; in assay [2] it was above 1 µM.

Turning to `COc1c(F)cccc1-c1c[nH]c2ncc(-c3ccc(CN4CCCC4)s3)cc12` [Example 174, 3-(3-fluoro-2-methoxyphenyl)-5-(5-(pyrrolidin-1-ylmethyl)thiophen-2-yl)-1H-pyrrolo[2,3-b]pyridine], the IC50 at SIK1 (SEQ ID NO: 10) is above 1 µM; in assay [1] it was below 0.1 µM; in assay [2], above 0.1 µM.

In the case of `COc1c(F)cccc1-c1c[nH]c2ncc(-c3ccc(CN4CCCCC4)s3)cc12` [Example 175, 3-(3-fluoro-2-methoxyphenyl)-5-(5-(piperidin-1-ylmethyl)thiophen-2-yl)-1H-pyrrolo[2,3-b]pyridine], the IC50 at SIK1 (SEQ ID NO: 10) was above 1 µM; in assay [1], below 0.1 µM; in assay [2], above 0.1 µM.

With `COc1c(F)cccc1-c1c[nH]c2ncc(-c3cnc(N4CCOCC4)s3)cc12` [Example 176, 4-(5-(3-(3-fluoro-2-methoxyphenyl)-1H-pyrrolo[2,3-b]pyridin-5-yl)thiazol-2-yl)morpholine], the IC50 was above 1 µM on SIK1 (SEQ ID NO: 10), below 0.1 µM in assay [1] and above 0.1 µM in assay [2].

On to `COc1c(F)cc(F)cc1-c1c[nH]c2ncc(-c3ccc(CN4CCCC4)s3)cc12` [Example 177, 3-(3,5-difluoro-2-methoxyphenyl)-5-(5-(pyrrolidin-1-ylmethyl)thiophen-2-yl)-1H-pyrrolo[2,3-b]pyridine], for which the results for the IC50 (at SIK1 (SEQ ID NO: 10); in assay [1]; in assay [2]) were above 1 µM, below 0.1 µM and above 0.1 µM, respectively.

Take `COc1c(F)cc(F)cc1-c1c[nH]c2ncc(-c3ccc(CN4CCCCC4)s3)cc12` [Example 178, 3-(3,5-difluoro-2-methoxyphenyl)-5-(5-(piperidin-1-ylmethyl)thiophen-2-yl)-1H-pyrrolo[2,3-b]pyridine]: the IC50 at SIK1 (SEQ ID NO: 10) was above 1 µM; in assay [1], below 0.1 µM; in assay [2], above 0.1 µM.

For the molecule `COc1c(F)cc(F)cc1-c1c[nH]c2ncc(-c3cnc(N4CCOCC4)s3)cc12` [Example 179, 4-(5-(3-(3,5-difluoro-2-methoxyphenyl)-1H-pyrrolo[2,3-b]pyridin-5-yl)thiazol-2-yl)morpholine], the figures for the IC50 (on SIK1 (SEQ ID NO: 10); in assay [1]; in assay [2]) were above 1 µM, below 0.1 µM and above 0.1 µM, respectively.

As to `COc1c(F)cccc1-c1c[nH]c2ncc(-c3cccc(S(=O)(=O)N(C)C(C)(C)C)c3)cc12` [Example 180], the IC50 on SIK1 (SEQ ID NO: 10) was above 1 µM; in assay [1], below 0.1 µM; in assay [2], above 0.1 µM.
